According to ChEMBL document CHEMBL1201862, “PubChem BioAssay data set” (2004):
Calls of active or inactive are those of the source.

Legend:
[1] = biological target: Intestinal-type alkaline phosphatase (Mus musculus, UniProt P24822); assay: PubChem AID 488874; type: functional
[2] = biological target: T1, Intestinal-type alkaline phosphatase (Homo sapiens, UniProt P09923); assay: human intestinal alkaline phosphatase activators, dose response, biochemical, luminescence, uHTS hits (AID 463120); type: functional
T1 sequence (P09923 whole entry): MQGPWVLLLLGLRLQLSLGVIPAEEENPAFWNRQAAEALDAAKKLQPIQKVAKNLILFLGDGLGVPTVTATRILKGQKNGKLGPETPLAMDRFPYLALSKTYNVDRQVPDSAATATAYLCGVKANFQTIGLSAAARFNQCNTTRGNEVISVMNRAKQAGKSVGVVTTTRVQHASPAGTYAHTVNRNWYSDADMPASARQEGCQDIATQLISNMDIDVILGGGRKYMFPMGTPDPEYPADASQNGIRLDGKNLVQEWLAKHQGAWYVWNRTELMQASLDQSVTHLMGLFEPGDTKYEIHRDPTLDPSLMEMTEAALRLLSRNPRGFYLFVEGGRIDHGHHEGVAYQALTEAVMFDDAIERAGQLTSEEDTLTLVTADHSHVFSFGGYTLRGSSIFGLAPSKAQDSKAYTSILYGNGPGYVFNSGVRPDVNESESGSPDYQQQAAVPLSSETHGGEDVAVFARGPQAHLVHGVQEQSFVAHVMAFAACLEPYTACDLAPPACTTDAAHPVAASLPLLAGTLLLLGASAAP

[3] = biological target: T1, Intestinal-type alkaline phosphatase; assay: activation of human intestinal alkaline phosphatase – biochemical, luminescent, uHTS hits, set 2, dose response (AID 488817); type: functional;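 also: potency of activators that raise enzyme activity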
[4] = biological target: T2, Alkaline phosphatase, tissue-nonspecific isozyme (Homo sapiens, UniProt P05186); assay: activation of tissue-nonspecific alkaline phosphatase – biochemical, TNAP isozyme, human IAP uHTS hits, selectivity assay for human IAP activator project, dose response (AID 488886); type: functional;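 also: potency of compounds raising TNAP activity as a selectivity check on IAP activators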
T2 sequence (P05186 whole entry): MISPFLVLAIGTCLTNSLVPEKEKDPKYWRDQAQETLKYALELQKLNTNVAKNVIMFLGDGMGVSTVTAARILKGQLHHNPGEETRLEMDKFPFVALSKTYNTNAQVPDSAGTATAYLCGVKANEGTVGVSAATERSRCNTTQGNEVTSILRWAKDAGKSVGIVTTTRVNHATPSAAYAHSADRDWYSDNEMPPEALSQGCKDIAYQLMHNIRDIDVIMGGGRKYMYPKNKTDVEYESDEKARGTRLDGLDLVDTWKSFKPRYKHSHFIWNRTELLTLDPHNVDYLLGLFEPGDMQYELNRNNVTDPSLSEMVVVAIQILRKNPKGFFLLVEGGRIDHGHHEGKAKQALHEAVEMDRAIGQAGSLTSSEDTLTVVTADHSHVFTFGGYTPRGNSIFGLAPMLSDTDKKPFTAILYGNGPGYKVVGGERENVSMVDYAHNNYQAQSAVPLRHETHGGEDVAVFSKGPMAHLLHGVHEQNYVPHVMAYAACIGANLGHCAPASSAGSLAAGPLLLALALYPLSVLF

DNA topoisomerase = DNA topoisomerase (Yersinia pestis, UniProt A0A2S9PM60); assay: Yersinia topoisomerase I cleavage product accumulation – biochemical, cherry-pick, dose response (AID 588525)
DNA topoisomerase, sequence (A0A2S9PM60 whole entry): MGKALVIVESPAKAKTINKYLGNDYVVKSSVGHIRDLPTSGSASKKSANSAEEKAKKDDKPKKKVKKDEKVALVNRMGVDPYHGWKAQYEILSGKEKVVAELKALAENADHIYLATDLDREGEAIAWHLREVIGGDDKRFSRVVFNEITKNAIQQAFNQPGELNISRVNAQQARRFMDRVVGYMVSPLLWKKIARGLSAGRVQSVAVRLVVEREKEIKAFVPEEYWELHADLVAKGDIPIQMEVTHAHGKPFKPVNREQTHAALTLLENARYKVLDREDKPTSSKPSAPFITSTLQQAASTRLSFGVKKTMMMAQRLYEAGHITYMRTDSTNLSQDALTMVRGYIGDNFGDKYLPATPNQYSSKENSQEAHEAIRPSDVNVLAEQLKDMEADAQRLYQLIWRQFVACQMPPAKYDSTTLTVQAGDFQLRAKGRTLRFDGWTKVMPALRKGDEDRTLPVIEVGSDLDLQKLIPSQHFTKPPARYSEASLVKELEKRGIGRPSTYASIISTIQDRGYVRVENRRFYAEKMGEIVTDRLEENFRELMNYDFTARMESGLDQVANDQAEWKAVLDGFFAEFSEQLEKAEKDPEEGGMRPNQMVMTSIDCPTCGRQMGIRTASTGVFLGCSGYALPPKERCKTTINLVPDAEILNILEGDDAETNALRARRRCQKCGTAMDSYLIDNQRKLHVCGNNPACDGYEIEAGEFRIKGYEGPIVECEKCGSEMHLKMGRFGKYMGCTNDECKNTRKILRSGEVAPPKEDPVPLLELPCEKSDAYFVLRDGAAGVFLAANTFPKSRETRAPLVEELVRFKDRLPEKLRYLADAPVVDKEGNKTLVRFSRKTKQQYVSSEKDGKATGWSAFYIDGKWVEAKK

HEK293 [5] = assay: cells; conditions: Homo sapiens
[6] = biological target: T3, Corticotropin-releasing factor receptor 2/Corticotropin-releasing factor-binding protein (Homo sapiens, UniProt P24387+Q13324); assay: activators of CRF receptor 2 with binding protein – uHTS hits, confirmation (AID 602473); type: functional; conditions: read-out: EC50_Mean
T3 sequence (Q13324 whole entry): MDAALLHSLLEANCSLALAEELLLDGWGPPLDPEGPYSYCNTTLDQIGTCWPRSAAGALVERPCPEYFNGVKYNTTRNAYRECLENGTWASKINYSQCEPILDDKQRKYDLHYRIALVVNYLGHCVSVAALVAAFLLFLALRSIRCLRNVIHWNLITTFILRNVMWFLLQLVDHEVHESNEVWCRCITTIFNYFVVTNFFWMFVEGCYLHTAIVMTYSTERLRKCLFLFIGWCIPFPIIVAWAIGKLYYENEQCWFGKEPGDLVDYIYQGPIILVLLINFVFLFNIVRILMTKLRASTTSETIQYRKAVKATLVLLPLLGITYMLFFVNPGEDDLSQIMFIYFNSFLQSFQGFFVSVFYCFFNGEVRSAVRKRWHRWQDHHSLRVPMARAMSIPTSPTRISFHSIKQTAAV
T3 sequence (P24387 whole entry): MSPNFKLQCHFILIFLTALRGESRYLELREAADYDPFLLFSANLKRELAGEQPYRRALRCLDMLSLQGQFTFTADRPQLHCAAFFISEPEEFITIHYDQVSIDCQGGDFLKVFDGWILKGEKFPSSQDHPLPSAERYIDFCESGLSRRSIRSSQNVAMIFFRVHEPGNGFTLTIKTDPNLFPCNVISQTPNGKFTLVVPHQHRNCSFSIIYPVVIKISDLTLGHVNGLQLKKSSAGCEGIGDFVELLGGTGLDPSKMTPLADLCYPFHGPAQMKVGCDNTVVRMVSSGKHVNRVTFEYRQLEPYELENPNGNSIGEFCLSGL

HEK293 [7] = assay: inhibition of NOD1-driven NF-kB reporter – cell-based, luminescence, uHTS, primary screen (AID 1578); type: functional; conditions: Homo sapiens
[8] = biological target: T3, Corticotropin-releasing factor receptor 2/Corticotropin-releasing factor-binding protein; assay: Dose Response confirmation of uHTS hits for small molecule antagonists of the CRF-binding protein and CRF-R2 receptor complex.; type: functional; conditions: read-out: IC50_Mean
HEK293 [9] = assay: NOD2 signaling inhibitors in MDP-stimulated cells, cell-based, uHTS, luminescence (AID 2001); type: functional; conditions: Homo sapiens
Tumor necrosis factor = Tumor necrosis factor (Homo sapiens, UniProt P01375); assay: analog potency on TNFa NF-kB signaling – cell-based, revised, SAR follow-up (AID 2337); type: functional
Tumor necrosis factor, sequence (P01375 whole entry): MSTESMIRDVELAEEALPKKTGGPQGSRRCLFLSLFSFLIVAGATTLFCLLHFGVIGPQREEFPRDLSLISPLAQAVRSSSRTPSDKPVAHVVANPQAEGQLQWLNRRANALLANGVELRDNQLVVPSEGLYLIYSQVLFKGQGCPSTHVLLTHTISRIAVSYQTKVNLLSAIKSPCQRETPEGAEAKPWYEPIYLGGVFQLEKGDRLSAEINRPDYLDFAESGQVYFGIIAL

HEK293 [10] = assay: cells; type: functional, cell-based; conditions: Homo sapiens
HEK293 [11] = assay: cells; type: functional, cell-based; conditions: Homo sapiens; remark: listed apart in the source
[12] = blockers of CRF-binding protein–CRF-R2 complex – cell-based, uHTS hits, 384-well, dose response (AID 651639); type: functional, Homo sapiens; conditions: read-out: IC50_Mean
[13] = biological target: Nucleotide-binding oligomerization domain-containing protein 1 (Homo sapiens, UniProt Q9Y239); assay: blockers of NOD1 pathway activity – revised, SAR follow-up (AID 2333); type: functional
Nucleotide-binding oligomerization domain-containing protein 1, sequence (Q9Y239 whole entry, the tested form may be a part): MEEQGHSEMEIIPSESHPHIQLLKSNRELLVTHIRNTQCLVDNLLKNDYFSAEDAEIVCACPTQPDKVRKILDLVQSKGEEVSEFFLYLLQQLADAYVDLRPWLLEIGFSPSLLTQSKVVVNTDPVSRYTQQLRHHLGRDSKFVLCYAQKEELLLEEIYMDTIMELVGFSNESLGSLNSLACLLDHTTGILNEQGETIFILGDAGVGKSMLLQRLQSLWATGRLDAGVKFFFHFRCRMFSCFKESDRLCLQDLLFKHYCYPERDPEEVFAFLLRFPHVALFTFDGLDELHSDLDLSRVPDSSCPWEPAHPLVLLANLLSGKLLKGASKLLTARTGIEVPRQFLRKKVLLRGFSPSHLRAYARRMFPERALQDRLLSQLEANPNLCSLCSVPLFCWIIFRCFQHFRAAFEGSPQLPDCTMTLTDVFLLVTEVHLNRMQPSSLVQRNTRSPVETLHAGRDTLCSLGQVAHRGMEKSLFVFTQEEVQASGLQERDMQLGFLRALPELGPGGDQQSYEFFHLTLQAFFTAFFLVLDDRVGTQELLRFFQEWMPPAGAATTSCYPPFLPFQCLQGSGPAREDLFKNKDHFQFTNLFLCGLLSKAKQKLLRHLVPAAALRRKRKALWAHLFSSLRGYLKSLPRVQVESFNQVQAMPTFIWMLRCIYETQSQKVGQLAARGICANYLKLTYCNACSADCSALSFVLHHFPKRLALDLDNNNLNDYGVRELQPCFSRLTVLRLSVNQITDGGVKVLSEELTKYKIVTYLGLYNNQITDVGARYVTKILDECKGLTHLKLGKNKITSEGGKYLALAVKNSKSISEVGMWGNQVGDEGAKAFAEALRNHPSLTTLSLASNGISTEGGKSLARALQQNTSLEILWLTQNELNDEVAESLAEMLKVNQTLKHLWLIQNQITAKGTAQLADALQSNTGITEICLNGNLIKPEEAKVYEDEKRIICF

HEK293 [14] = assay: cells; type: functional, cell-based; conditions: Homo sapiens; remark: listed apart in the source
[15] = biological target: Nucleotide-binding oligomerization domain-containing protein 2 (Homo sapiens, UniProt Q9HC29); assay: inhibition of NOD2-driven NF-kB reporter – cell-based, luminescence, uHTS, HEK293 (AID 1566); type: functional
Nucleotide-binding oligomerization domain-containing protein 2, sequence (Q9HC29 whole entry, the tested form may be a part): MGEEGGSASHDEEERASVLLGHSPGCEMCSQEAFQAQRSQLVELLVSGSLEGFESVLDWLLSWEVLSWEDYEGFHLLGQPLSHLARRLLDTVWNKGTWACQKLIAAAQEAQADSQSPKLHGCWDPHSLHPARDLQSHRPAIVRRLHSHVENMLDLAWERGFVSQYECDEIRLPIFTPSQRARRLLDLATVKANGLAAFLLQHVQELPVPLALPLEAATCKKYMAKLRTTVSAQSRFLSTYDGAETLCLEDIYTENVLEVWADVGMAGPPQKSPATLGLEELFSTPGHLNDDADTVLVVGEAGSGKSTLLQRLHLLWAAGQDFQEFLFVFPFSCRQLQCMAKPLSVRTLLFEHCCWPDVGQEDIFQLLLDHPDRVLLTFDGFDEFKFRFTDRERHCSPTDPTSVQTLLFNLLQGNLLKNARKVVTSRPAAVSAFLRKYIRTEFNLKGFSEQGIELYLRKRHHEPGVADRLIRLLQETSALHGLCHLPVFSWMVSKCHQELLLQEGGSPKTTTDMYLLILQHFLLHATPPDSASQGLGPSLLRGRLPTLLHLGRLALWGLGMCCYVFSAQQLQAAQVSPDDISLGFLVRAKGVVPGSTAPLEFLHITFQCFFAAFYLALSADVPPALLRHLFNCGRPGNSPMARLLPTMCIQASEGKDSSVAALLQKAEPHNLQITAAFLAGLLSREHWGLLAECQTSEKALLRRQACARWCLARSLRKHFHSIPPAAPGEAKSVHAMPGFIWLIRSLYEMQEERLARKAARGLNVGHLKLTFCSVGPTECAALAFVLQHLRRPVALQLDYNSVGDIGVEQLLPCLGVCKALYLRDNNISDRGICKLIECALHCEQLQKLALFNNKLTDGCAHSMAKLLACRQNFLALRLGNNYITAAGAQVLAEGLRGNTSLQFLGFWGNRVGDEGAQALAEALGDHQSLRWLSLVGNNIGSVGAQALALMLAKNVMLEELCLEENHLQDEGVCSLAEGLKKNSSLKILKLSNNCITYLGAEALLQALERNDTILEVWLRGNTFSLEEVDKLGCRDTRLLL

[16] = biological target: Dual specificity tyrosine-phosphorylation-regulated kinase 1A (Rattus norvegicus, UniProt Q63470); type: biochemical, Homo sapiens
[17] = biological target: ADP-ribosylation factor GTPase-activating protein 1 (Rattus norvegicus, UniProt Q62848); assay: Fluorescence polarization-based biochemical high throughput dose response screening assay to identify inhibitors of ADP-ribosylation factor GTPase activating protein 1 (ARFGAP1).; type: functional
ADP-ribosylation factor GTPase-activating protein 1, sequence (Q62848 whole entry): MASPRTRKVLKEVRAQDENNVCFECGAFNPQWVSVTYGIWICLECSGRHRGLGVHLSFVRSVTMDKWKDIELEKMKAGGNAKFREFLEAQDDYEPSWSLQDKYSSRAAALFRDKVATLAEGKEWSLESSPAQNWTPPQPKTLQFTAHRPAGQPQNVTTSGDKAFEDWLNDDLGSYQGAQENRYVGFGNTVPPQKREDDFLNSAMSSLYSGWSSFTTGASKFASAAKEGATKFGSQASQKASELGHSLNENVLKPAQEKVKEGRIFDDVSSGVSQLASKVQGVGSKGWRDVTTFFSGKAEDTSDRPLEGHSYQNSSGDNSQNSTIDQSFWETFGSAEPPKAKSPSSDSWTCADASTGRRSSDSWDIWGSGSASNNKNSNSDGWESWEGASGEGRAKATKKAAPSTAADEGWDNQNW

[18] = Trypanosoma cruzi growth suppression in host cells – NIH3T3 host cells, beta-gal luminescence, confirmation (AID 2044); type: functional, cell-based;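 also: intracellular parasites grown in NIH/3T3 mouse fibroblasts as host cells; luminescent beta-galactosidase reporter signal from transgenic T. cruzi replicating inside host cells; inhibitors lower the luminescence signal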
[19] = NIH3T3 cell viability loss – ATP luminescence, mouse fibroblasts, counter-screen, dose response (AID 2010); type: functional, cell-based;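 also: cells exposed to compound for about 90 hours before reading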
[20] = biological target: Dual specificity protein kinase CLK1 (Homo sapiens, UniProt P49759); assay: inhibition of human CLK1 activity – biochemical, cherry-picked samples, selectivity assay for Dyrk1A inhibitor project, dose response (AID 588811)
Dual specificity protein kinase CLK1, sequence (P49759 whole entry): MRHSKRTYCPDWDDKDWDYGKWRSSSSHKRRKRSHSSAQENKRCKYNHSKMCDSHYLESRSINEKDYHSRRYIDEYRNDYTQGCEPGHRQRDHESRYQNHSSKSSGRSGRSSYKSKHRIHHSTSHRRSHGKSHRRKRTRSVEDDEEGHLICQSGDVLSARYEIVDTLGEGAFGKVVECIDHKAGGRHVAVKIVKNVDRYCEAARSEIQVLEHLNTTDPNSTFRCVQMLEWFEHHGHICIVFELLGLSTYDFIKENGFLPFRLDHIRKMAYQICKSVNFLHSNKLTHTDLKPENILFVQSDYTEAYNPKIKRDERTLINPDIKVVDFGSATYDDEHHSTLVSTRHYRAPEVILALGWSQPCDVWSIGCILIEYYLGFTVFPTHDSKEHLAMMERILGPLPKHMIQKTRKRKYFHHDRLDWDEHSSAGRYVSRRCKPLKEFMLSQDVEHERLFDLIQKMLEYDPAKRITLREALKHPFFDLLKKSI

[21] = biological target: FAD-linked sulfhydryl oxidase ALR (Homo sapiens, UniProt P55789); assay: ALR-catalysed DTT oxidation blockers – biochemical, H2O2 detection, luminescence, cherry-pick, dose response (AID 493248)
FAD-linked sulfhydryl oxidase ALR, sequence (P55789 whole entry): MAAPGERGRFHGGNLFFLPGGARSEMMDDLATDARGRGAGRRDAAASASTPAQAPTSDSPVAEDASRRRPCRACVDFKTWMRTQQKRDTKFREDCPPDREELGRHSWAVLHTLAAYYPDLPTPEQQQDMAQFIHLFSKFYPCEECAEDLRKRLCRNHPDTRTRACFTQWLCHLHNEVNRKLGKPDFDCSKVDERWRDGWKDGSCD

O=C(NNC(=S)NCc1ccco1)c1ccccc1Br
active: IC50 [1] 53.9 µM | EC50 [2] 9.62 µM | EC50 [3] 13.8 µM | EC50 [4] 12 µM

Nc1cc(O)nc(SCC(=O)N2N=C(c3ccc4ccccc4c3)CC2c2ccccc2)n1 (centres undefined)
active: AC50 (DNA topoisomerase) 16.1 µM

CC1CCN(S(=O)(=O)c2nnc(NC(=O)c3cccc(Cl)c3)s2)CC1
active: IC50 (HEK293 [5]) 17.2 µM | EC50 (HEK293 [7]) 2.64 µM | IC50 [8] 14.6 µM | IC50 (HEK293 [9]) 9.2 µM | IC50 (Tumor necrosis factor) 6.64 µM | IC50 (HEK293 [11]) 11.1 µM | IC50 [13] 5.14 µM | EC50 [15] 16.8 µM
inactive: EC50 [6] > 53 µM | IC50 (HEK293 [10]) > 20 µM | IC50 [12] > 20 µM | IC50 (HEK293 [14]) > 20 µM

O=C(/C=C/c1ccccc1)Nc1nc(-c2ccncc2)cs1
active: AC50 [16] 0.103 µM | EC50 [18] 0.843 µM | EC50 [19] 17.6 µM
inactive: IC50 [17] 28.8 µM

NC(=O)c1c(NC(=O)c2ccc(N3C(=O)CCC3=O)cc2)sc2c1CCCC2
active: AC50 [16] 3.9 µM | AC50 [20] 0.853 µM | AC50 [21] 0.165 µM
